The record followed here is PubChem BioAssay (NCI).

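Following 48 hours of exposure in 96-well plates, responses at five concentrations were used to interpolate endpoints linearly. The concentration for 50% growth inhibition is given as GI50. TGI: concentration producing complete growth inhibition.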 Some results are limits rather than exact numbers.

Some test systems named below: A549 NSCLC; HS 578T breast; LOX IMVI melanoma; MALME-3M melanoma; NCI-H522 lung; NCI/ADR-RES ovarian; SK-MEL-28 melanoma; SK-MEL-5 melanoma; SN12C renal; SR leukemia.
Holding throughout (test): inhibition of tumour cell growth, NCI panel, 48 h

As for `O=C1/C(=C/c2ccccc2Br)COc2ccc(O)c(O)c21`, the GI50 with A549 NSCLC was 2.17 µM; with HS 578T breast, 3.28 µM; with LOX IMVI melanoma, 1.03 µM; in the test on MALME-3M melanoma it was 1.28 µM; with NCI-H522 lung, 0.196 µM; with NCI/ADR-RES ovarian it was 1.88 µM. In addition, the GI50 in the test with SK-MEL-28 melanoma is 1.94 µM; in the test with SK-MEL-5 melanoma, 1.63 µM; in the test with SN12C renal, 0.937 µM. The TGI in the test with A549 NSCLC is 10.2 µM; in the test on HS 578T breast, 21.5 µM; in the test with LOX IMVI melanoma, 2.32 µM; in the test on MALME-3M melanoma, 3.27 µM; with NCI-H522 lung it was 0.494 µM; with NCI/ADR-RES ovarian it was 11.6 µM. Moreover, the TGI in the test with SK-MEL-28 melanoma was 4.42 µM; in the test on SK-MEL-5 melanoma it was 3.01 µM; in the test on SN12C renal, 3.62 µM.
As for `CCC(c1ccc(OC)cc1)C(CC)c1ccc(O)c(CN2CCCC2)c1` (stereo not given), the GI50 was 3.73 µM in the test with A549 NSCLC; 5.33 µM with HS 578T breast; 2.04 µM in the test on LOX IMVI melanoma; 1.76 µM in the test on MALME-3M melanoma; 1.66 µM in the test on NCI-H522 lung; 5.92 µM in the test with NCI/ADR-RES ovarian. In addition, the GI50 was 2.04 µM in the test with SK-MEL-28 melanoma, 1.74 µM in the test on SK-MEL-5 melanoma, 5.61 µM in the test on SN12C renal and 1.49 µM in the test on SR leukemia. In addition, the TGI was determined as 13.8 µM with A549 NSCLC; 23.8 µM in the test on HS 578T breast; 4.74 µM in the test on LOX IMVI melanoma; 3.95 µM in the test on MALME-3M melanoma; 3.79 µM in the test with NCI-H522 lung; 22.3 µM with NCI/ADR-RES ovarian. Further, the TGI in the test with SK-MEL-28 melanoma turned out to be 4.57 µM; in the test with SK-MEL-5 melanoma, 3.22 µM; in the test with SN12C renal, 20.2 µM; with SR leukemia it was 4.62 µM.
On to `COc1cccc(-c2nc(-c3ccc(NC(=O)c4ccccc4)cc3)[nH]c2-c2ccnc(Br)c2)c1`, for which the GI50 in the test on A549 NSCLC was 4.07 µM; in the test on HS 578T breast, 0.339 µM; in the test on LOX IMVI melanoma, 1.13 µM; in the test with MALME-3M melanoma, 2.86 µM; in the test with NCI-H522 lung, 3.17 µM; in the test with NCI/ADR-RES ovarian, 3.55 µM. The GI50 in the test with SK-MEL-28 melanoma was 3 µM; in the test on SK-MEL-5 melanoma it was 1.79 µM; with SR leukemia, 1.94 µM. Further, the TGI is above 100 µM in the test with A549 NSCLC; 1.75 µM with HS 578T breast; 2.69 µM with LOX IMVI melanoma; above 100 µM with MALME-3M melanoma; above 100 µM with NCI-H522 lung; above 100 µM in the test on NCI/ADR-RES ovarian. For the same compound, the TGI in the test with SK-MEL-28 melanoma was above 100 µM; with SK-MEL-5 melanoma, 3.34 µM; in the test with SR leukemia, above 100 µM.
`N#Cc1ccc(-c2nc3ccc(Cl)cc3[nH]2)cc1`: the TGI in the test with A549 NSCLC, with HS 578T breast, in the test with NCI-H522 lung, in the test on NCI/ADR-RES ovarian, in the test with SK-MEL-5 melanoma and with SN12C renal was above 100 µM throughout. The TGI in the test with SR leukemia is above 100 µM.
Take `O=C1/C(=C/c2ccccc2)CN(CCC(=O)N2C/C(=C\c3ccccc3)C(=O)/C(=C/c3ccccc3)C2)C/C1=C\c1ccccc1`: the GI50 in the test with A549 NSCLC was 29.3 µM; in the test on HS 578T breast, 10.7 µM; in the test with LOX IMVI melanoma, 0.628 µM; in the test with MALME-3M melanoma, 22.3 µM; in the test with NCI-H522 lung, 14.6 µM; with NCI/ADR-RES ovarian, 12.1 µM. Moreover, the GI50 was 23.4 µM in the test with SK-MEL-28 melanoma, 14.1 µM with SK-MEL-5 melanoma, 17.3 µM in the test on SN12C renal and 0.295 µM with SR leukemia. Also, the TGI with A549 NSCLC was above 100 µM; in the test with HS 578T breast, 55.4 µM; with LOX IMVI melanoma, 4.32 µM; in the test on MALME-3M melanoma, 64.3 µM; in the test on NCI-H522 lung it was 62.7 µM; with NCI/ADR-RES ovarian, above 76 µM. Further, the TGI was 74.5 µM with SK-MEL-28 melanoma, 47.2 µM with SK-MEL-5 melanoma, above 95.9 µM with SN12C renal and above 100 µM in the test on SR leukemia.
Take `COc1cc2c(=O)n(CCCn3ccnc3)c3c4cc5c(cc4ccc3c2cc1OC)OCO5`: the GI50 with A549 NSCLC is 1.96 µM; in the test on HS 578T breast it was 2.33 µM; in the test with MALME-3M melanoma it was 2.02 µM; in the test on NCI-H522 lung, 0.324 µM; in the test on NCI/ADR-RES ovarian, 1.08 µM; in the test with SK-MEL-28 melanoma, 2 µM. The figures for the GI50 in the test on SN12C renal and in the test on SR leukemia were 0.635 µM and 0.203 µM, respectively. Further, the TGI is above 100 µM in the test on A549 NSCLC; above 80.6 µM in the test with HS 578T breast; above 100 µM with MALME-3M melanoma; 17.1 µM in the test on NCI-H522 lung; above 100 µM with NCI/ADR-RES ovarian; above 100 µM in the test with SK-MEL-28 melanoma. In addition, the TGI with SN12C renal and in the test on SR leukemia was above 100 µM each time.
Turning to `CCOC(=O)C#Cc1ccc([N+](=O)[O-])cc1`, the TGI came to 27 µM in the test with A549 NSCLC; 21.8 µM in the test with HS 578T breast; 2.77 µM with LOX IMVI melanoma; 3.09 µM with NCI-H522 lung; 79.5 µM in the test with NCI/ADR-RES ovarian; 23.4 µM with SK-MEL-28 melanoma. In addition, the TGI in the test with SK-MEL-5 melanoma amounted to 9.63 µM; in the test with SN12C renal, 3.39 µM; in the test on SR leukemia it was 5.27 µM.
As to `Cc1ccc2c(N/N=C\c3ccco3)cc(C)nc2n1`, the GI50 in the test on A549 NSCLC was 4.37 µM; in the test with HS 578T breast, 5.83 µM; in the test with LOX IMVI melanoma it was 3.76 µM; in the test with NCI-H522 lung, 2.92 µM; in the test on NCI/ADR-RES ovarian it was 6.25 µM; in the test with SK-MEL-28 melanoma, 2.11 µM. Also, the GI50 is 10.1 µM with SK-MEL-5 melanoma, 4.68 µM in the test on SN12C renal and 2.15 µM with SR leukemia. For the same compound, the TGI stood at 18.5 µM in the test on A549 NSCLC; 29.6 µM in the test on HS 578T breast; 14 µM with LOX IMVI melanoma; 9.84 µM with NCI-H522 lung; 26.1 µM with NCI/ADR-RES ovarian; 5.35 µM in the test with SK-MEL-28 melanoma. The results for the TGI in the test with SK-MEL-5 melanoma, in the test with SN12C renal and with SR leukemia were 22.3 µM, 16.5 µM and 6.07 µM, respectively.
As to `N#Cc1nn(C2OC(COC(=O)c3ccccc3)C(OC(=O)c3ccccc3)C2OC(=O)c2ccccc2)c2nc[nH]c(=O)c12` (stereo not given), the TGI with A549 NSCLC is above 100 µM; in the test with HS 578T breast, above 100 µM; in the test on MALME-3M melanoma, 90.4 µM; with NCI-H522 lung it was above 100 µM; in the test on NCI/ADR-RES ovarian, above 100 µM; in the test on SK-MEL-28 melanoma, above 100 µM. Also, the TGI with SK-MEL-5 melanoma was 65.6 µM; with SN12C renal, above 100 µM; in the test with SR leukemia it was 94.4 µM.
